Assays:
rape = experiment: Test B pre/postemergence rape; format: in vivo, Brassica napus
In short: (§1)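 Response is a visual 0-to-10 score relative to untreated plants, where 0 means no effect and 10 means complete control, taken twelve to sixteen days after application. Treatments went onto soil at planting and onto foliage of 1- to 4-leaf plants, using a surfactant-containing non-phytotoxic solvent.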

smallflower flatsedge = experiment: Test B flood test smallflower flatsedge; format: in vivo, Cyperus difformis
In short: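 Plants were grown to the 2-leaf stage before treatment with test chemical, then held in a greenhouse for twelve to sixteen days. Injury was visually rated against untreated controls on a 0–10 scale, where 0 is no effect and 10 is complete control.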

soybean = experiment: Test B pre/postemergence soybean; format: in vivo, Glycine max
In short: as §1

corn = experiment: Test B pre/postemergence corn; format: in vivo, Zea mays
In short: as §1

[1] = Postemergence, Rate 62 g/ha, scale 0 to 10, 0 is no effect, 10 is complete control
[2] = Postemergence, Rate 250 g/ha, scale 0 to 10, 0 no effect, 10 complete control
[3] = Preemergence, Rate 62 g/ha, scale 0 to 10 (0 no effect, 10 complete control)
[4] = Preemergence, Rate 125 g/ha, scale 0 to 10 (0 no effect, 10 complete control)
[5] = Preemergence, Rate 250 g/ha, scale of 0 to 10 where 0 is no effect and 10 is complete control
[6] = Preemergence, Rate 500 g/ha, scale 0 (no effect) to 10 (complete control)
[7] = Rate 125 g/ha, Postemergence, scale 0 to 10, 0 no effect, 10 complete control
[8] = Rate 500 g/ha, Postemergence, scale 0 to 10, 0 no effect, 10 complete control
[9] = Rate 125 g/ha, Postemergence section (flood test species), scale 0 to 10, 0 no effect, 10 complete control
[10] = Rate 500 g/ha, listed under Postemergence (flood test species), scale 0 to 10, 0 no effect, 10 complete control
[11] = flood test, listed under Postemergence, Rate 250 g/ha, scale 0 to 10, 0 no effect, 10 complete control
[12] = Postemergence, Rate 125 g/ha, scale of 0 to 10 where 0 is no effect and 10 is complete control
[13] = Preemergence, Rate 500 g/ha, scale 0 to 10 (0 no effect, 10 complete control)
[14] = Rate 62 g/ha, Postemergence, scale of 0 to 10 where 0 is no effect and 10 is complete control
[15] = Postemergence (flood test species), Rate 125 g/ha, scale of 0 to 10 where 0 is no effect and 10 is complete control
[16] = Rate 62 g/ha, Postemergence section, flood test species, scale of 0 to 10 where 0 is no effect and 10 is complete control
[17] = Rate 250 g/ha, Postemergence (flood test), scale 0 to 10, 0 is no effect, 10 is complete control
[18] = Rate 250 g/ha, Postemergence, scale 0 to 10, 0 is no effect, 10 is complete control
[19] = Postemergence, Rate 1000 g/ha, scale 0 to 10 (0 no effect, 10 complete control)
[20] = Preemergence, Rate 125 g/ha, 0 is no effect, 10 is complete control
[21] = Preemergence, Rate 250 g/ha, scale 0 to 10, 0 is no effect, 10 is complete control
[22] = Rate 500 g/ha, Postemergence, scale 0 to 10
[23] = Rate 1000 g/ha, Preemergence, scale 0 to 10 (0 no effect, 10 complete control)

CCN(Cc1ccccc1)C(=O)n1oc(=O)n(-c2ccccc2C)c1=O [Compound 71]
Rape plant response rating (rape; [1]): 0 | Rape plant response rating (rape; [2]): 0 | Rape plant response rating (rape; [3]): 0 | Plant response rating, Rape (rape; [4]): 0 | Plant response rating, Rape (rape; [5]): 0 | Rape plant response rating (rape; [6]): 0 | Rape plant response rating (rape; [7]): 0 | Rape plant response rating (rape; [8]): 0 | S. Flatsedge plant response rating (smallflower flatsedge; Rate 62 g/ha, headed Pre-emergence (flood test species), scale 0 to 10 (0 no effect, 10 complete control)): 0 | S. Flatsedge plant response rating (smallflower flatsedge; Rate 125 g/ha, Pre-emergence, flood test species, scale 0 to 10 where 0 is no effect and 10 is complete control): 0 | S. Flatsedge plant response rating (smallflower flatsedge; Rate 250 g/ha, headed Pre-emergence (flood test species), scale 0 to 10 (0 no effect, 10 complete control)): 0 | Plant response rating, S. Flatsedge (smallflower flatsedge; Rate 500 g/ha, headed Pre-emergence (flood test species), scale 0 to 10 (0 no effect, 10 complete control)): 0 | Soybean plant response rating (soybean; [1]): 0 | Soybean plant response rating (soybean; [2]): 0 | Soybean plant response rating (soybean; [3]): 0 | Plant response rating, Soybean (soybean; [4]): 0 | Plant response rating, Soybean (soybean; [5]): 0 | Soybean plant response rating (soybean; [6]): 0 | Soybean plant response rating (soybean; [7]): 0 | Soybean plant response rating (soybean; [8]): 0 | Corn plant response rating (corn; [1]): 0 | Corn plant response rating (corn; [2]): 0 | Corn plant response rating (corn; [3]): 0 | Plant response rating, Corn (corn; [4]): 0 | Plant response rating, Corn (corn; [5]): 0 | Corn plant response rating (corn; [6]): 0 | Corn plant response rating (corn; [7]): 0 | Corn plant response rating (corn; [8]): 0

COc1cccc(C)c1-n1c(=O)on(C(=O)N(c2ccccc2)C(C)C)c1=O [Compound 73]
Rape plant response rating (rape; [1]): 0 | Rape plant response rating (rape; [2]): 0 | Rape plant response rating (rape; [3]): 0 | Plant response rating, Rape (rape; [4]): 0 | Plant response rating, Rape (rape; [5]): 0 | Rape plant response rating (rape; [6]): 0 | Rape plant response rating (rape; [7]): 0 | S. Flatsedge plant response rating (smallflower flatsedge; [1]): 0 | S. Flatsedge plant response rating (smallflower flatsedge; [9]): 0 | S. Flatsedge plant response rating (smallflower flatsedge; [10]): 0 | S. Flatsedge plant response rating (smallflower flatsedge; [11]): 0 | Soybean plant response rating (soybean; [1]): 0 | Soybean plant response rating (soybean; [2]): 3 | Soybean plant response rating (soybean; [3]): 0 | Plant response rating, Soybean (soybean; [4]): 0 | Plant response rating, Soybean (soybean; [5]): 0 | Soybean plant response rating (soybean; [6]): 0 | Soybean plant response rating (soybean; [7]): 0 | Soybean plant response rating (soybean; [8]): 3 | Corn plant response rating (corn; [1]): 0 | Corn plant response rating (corn; [2]): 0 | Corn plant response rating (corn; [3]): 0 | Plant response rating, Corn (corn; [4]): 0 | Plant response rating, Corn (corn; [5]): 0 | Corn plant response rating (corn; [6]): 0 | Corn plant response rating (corn; [7]): 0 | Corn plant response rating (corn; [8]): 0

Cc1nn(C)c(C)c1-n1c(=O)on(C(=O)N(c2ccc(F)cc2F)C(C)C)c1=O [Compound 76]
Rape plant response rating (rape; [1]): 0 | Rape plant response rating (rape; [2]): 0 | Rape plant response rating (rape; [3]): 0 | Plant response rating, Rape (rape; [4]): 0 | Plant response rating, Rape (rape; [5]): 0 | Rape plant response rating (rape; [6]): 0 | Rape plant response rating (rape; [7]): 0 | Rape plant response rating (rape; [8]): 2 | S. Flatsedge plant response rating (smallflower flatsedge; [1]): 0 | S. Flatsedge plant response rating (smallflower flatsedge; [9]): 0 | S. Flatsedge plant response rating (smallflower flatsedge; [10]): 0 | S. Flatsedge plant response rating (smallflower flatsedge; [11]): 0 | Soybean plant response rating (soybean; [1]): 0 | Soybean plant response rating (soybean; [2]): 2 | Soybean plant response rating (soybean; [3]): 0 | Plant response rating, Soybean (soybean; [4]): 0 | Plant response rating, Soybean (soybean; [5]): 0 | Soybean plant response rating (soybean; [6]): 0 | Soybean plant response rating (soybean; [7]): 1 | Soybean plant response rating (soybean; [8]): 2 | Corn plant response rating (corn; [1]): 0 | Corn plant response rating (corn; [2]): 0 | Corn plant response rating (corn; [3]): 0 | Plant response rating, Corn (corn; [4]): 0 | Plant response rating, Corn (corn; [5]): 2 | Corn plant response rating (corn; [6]): 4 | Corn plant response rating (corn; [7]): 0 | Corn plant response rating (corn; [8]): 0

CN(C(=O)n1oc(=O)n(Cc2cccs2)c1=O)c1ccccc1 [Compound 83]
Rape plant response rating (rape; [1]): 0 | Rape plant response rating (rape; [2]): 0 | Rape plant response rating (rape; [3]): 0 | Plant response rating, Rape (rape; [4]): 0 | Plant response rating, Rape (rape; [5]): 0 | Rape plant response rating (rape; [6]): 0 | Rape plant response rating (rape; [7]): 0 | Rape plant response rating (rape; [8]): 0 | S. Flatsedge plant response rating (smallflower flatsedge; [1]): 0 | S. Flatsedge plant response rating (smallflower flatsedge; [9]): 0 | S. Flatsedge plant response rating (smallflower flatsedge; [10]): 0 | S. Flatsedge plant response rating (smallflower flatsedge; [11]): 0 | Soybean plant response rating (soybean; [1]): 0 | Soybean plant response rating (soybean; [2]): 0 | Soybean plant response rating (soybean; [3]): 0 | Plant response rating, Soybean (soybean; [4]): 0 | Plant response rating, Soybean (soybean; [5]): 0 | Soybean plant response rating (soybean; [6]): 0 | Soybean plant response rating (soybean; [7]): 0 | Soybean plant response rating (soybean; [8]): 0 | Corn plant response rating (corn; [1]): 0 | Corn plant response rating (corn; [2]): 0 | Corn plant response rating (corn; [3]): 0 | Plant response rating, Corn (corn; [4]): 0 | Plant response rating, Corn (corn; [5]): 0 | Corn plant response rating (corn; [6]): 0 | Corn plant response rating (corn; [7]): 0 | Corn plant response rating (corn; [8]): 0

Cc1ccccc1Cn1c(=O)on(C(=O)N(C)c2ccccc2)c1=O [Compound 85]
Rape plant response rating (rape; [1]): 0 | Rape plant response rating (rape; [2]): 0 | Rape plant response rating (rape; [3]): 0 | Plant response rating, Rape (rape; [4]): 0 | Plant response rating, Rape (rape; [5]): 0 | Rape plant response rating (rape; [6]): 0 | Rape plant response rating (rape; [7]): 0 | Rape plant response rating (rape; [8]): 0 | S. Flatsedge plant response rating (smallflower flatsedge; [1]): 0 | S. Flatsedge plant response rating (smallflower flatsedge; [9]): 0 | S. Flatsedge plant response rating (smallflower flatsedge; [10]): 0 | S. Flatsedge plant response rating (smallflower flatsedge; [11]): 0 | Soybean plant response rating (soybean; [1]): 0 | Soybean plant response rating (soybean; [2]): 0 | Soybean plant response rating (soybean; [3]): 0 | Plant response rating, Soybean (soybean; [4]): 0 | Plant response rating, Soybean (soybean; [5]): 0 | Soybean plant response rating (soybean; [6]): 0 | Soybean plant response rating (soybean; [7]): 0 | Soybean plant response rating (soybean; [8]): 0 | Corn plant response rating (corn; [1]): 0 | Corn plant response rating (corn; [2]): 0 | Corn plant response rating (corn; [3]): 0 | Plant response rating, Corn (corn; [4]): 0 | Plant response rating, Corn (corn; [5]): 0 | Corn plant response rating (corn; [6]): 0 | Corn plant response rating (corn; [7]): 0 | Corn plant response rating (corn; [8]): 0

CC(C)N(C(=O)n1oc(=O)n(Cc2ccccc2)c1=O)c1ccc(Cl)cc1 [Compound 106]
Rape plant response rating (rape; [12]): 0 | Rape plant response rating (rape; [2]): 0 | Rape plant response rating (rape; [3]): 0 | Plant response rating, Rape (rape; [4]): 0 | Plant response rating, Rape (rape; [5]): 0 | Rape plant response rating (rape; [13]): 2 | Rape plant response rating (rape; [14]): 0 | Rape plant response rating (rape; [8]): 0 | S. Flatsedge plant response rating (smallflower flatsedge; [15]): 0 | S. Flatsedge plant response rating (smallflower flatsedge; [16]): 0 | Plant response rating, S. Flatsedge (smallflower flatsedge; [17]): 0 | S. Flatsedge plant response rating (smallflower flatsedge; [10]): 0 | Soybean plant response rating (soybean; [12]): 0 | Soybean plant response rating (soybean; [3]): 0 | Plant response rating, Soybean (soybean; [4]): 0 | Plant response rating, Soybean (soybean; [5]): 0 | Soybean plant response rating (soybean; [13]): 0 | Soybean plant response rating (soybean; [14]): 0 | Plant response rating, Soybean (soybean; [18]): 1 | Soybean plant response rating (soybean; [8]): 1 | Corn plant response rating (corn; [12]): 0 | Corn plant response rating (corn; [2]): 0 | Corn plant response rating (corn; [3]): 0 | Plant response rating, Corn (corn; [4]): 0 | Plant response rating, Corn (corn; [5]): 0 | Corn plant response rating (corn; [13]): 0 | Corn plant response rating (corn; [14]): 0 | Corn plant response rating (corn; [8]): 0

C=CCn1c(=O)on(C(=O)N(c2ccc(F)cc2F)C2CC2)c1=O [Compound 127]
Rape plant response rating (rape; [12]): 0 | Rape plant response rating (rape; [19]): 0 | Rape plant response rating (rape; [3]): 0 | Rape plant response rating (0 to 10 scale) (rape; [20]): 0 | Rape plant response rating (rape; [21]): 0 | Rape plant response rating (rape; [13]): 0 | Rape plant response rating (rape; [14]): 0 | Plant response rating, Rape (rape; [18]): 0 | Rape plant response rating (rape; [22]): 0 | Plant response rating, Rape (rape; [23]): 0 | S. Flatsedge plant response rating (smallflower flatsedge; [15]): 0 | S. Flatsedge plant response rating (smallflower flatsedge; [16]): 0 | Plant response rating, S. Flatsedge (smallflower flatsedge; [17]): 0 | S. Flatsedge plant response rating (smallflower flatsedge; Rate 500 g/ha, listed under Postemergence (flood test species), scale 0 to 10): 0 | Soybean plant response rating (soybean; [12]): 0 | Soybean plant response rating (soybean; [19]): 0 | Soybean plant response rating (soybean; [3]): 0 | Soybean plant response rating (0 to 10 scale) (soybean; [20]): 0 | Soybean plant response rating (soybean; [21]): 0 | Soybean plant response rating (soybean; [13]): 0 | Soybean plant response rating (soybean; [14]): 0 | Plant response rating, Soybean (soybean; [18]): 0 | Soybean plant response rating (soybean; [22]): 0 | Plant response rating, Soybean (soybean; [23]): 0 | Corn plant response rating (corn; [12]): 0 | Corn plant response rating (corn; [19]): 0 | Corn plant response rating (corn; [3]): 0 | Corn plant response rating (0 to 10 scale) (corn; [20]): 0 | Corn plant response rating (corn; [21]): 0 | Corn plant response rating (corn; [13]): 0 | Corn plant response rating (corn; [14]): 0 | Plant response rating, Corn (corn; [18]): 0 | Corn plant response rating (corn; [22]): 0 | Plant response rating, Corn (corn; [23]): 0
